According to patent US11789013B2, “Componential analyzer, drug efficacy analyzer, and analysis method” (Hitachi High-Tech Corporation, priority 2013, dated 2023):

System: hepatocytes
Assay: Drug distribution / efflux fraction analysis in cultured hepatocytes (basolateral efflux, biliary excretion, intracellular fraction)
Type: in vitro ADME, rat
Details: for ratio of the amount of drug excreted into the bile duct to the total amount of drug taken up into the cells (BiRD), (B1−B2)/(C1+C2): pattern 1, sequences 1 (EGTA disrupted) and 2 (maintained), 37° C.; for ratio of the amount of drug excreted into the bile duct to the total amount of drug taken up into the cells (BiRD), (B1−B2)/(C1+C2) / Sup fraction (first fraction of the basolateral efflux, S1), index for tendency to remain or not to remain in the cells: 30 minutes; for ratio of the amount of drug excreted into the bile duct to the total amount of drug taken up into the cells (BiRD), (B1−B2)/(C1+C2) / ratio of the amount of drug excreted via transporter to the amount of drug excreted to the basolateral side (RexEMTP), (B2-B3)/B2: fluorescence; for ratio of the amount of drug excreted via transporter to the amount of drug excreted to the basolateral side (RexEMTP), (B2-B3)/B2: pattern 1, step 5, 30 minutes, sequences 2 (37° C.) and 3 (4° C.); for Sup fraction (first fraction of the basolateral efflux, S1), index for tendency to remain or not to remain in the cells: pattern 2 (sum of steps 4, 5, 6 = 100%), step 4, 37° C., in %
Method: Hepatocytes were prepared by in situ collagenase perfusion method. The details are as follows. A rat (5-6 week-old) is anesthetized with pentobarbital and laparotomy is performed to insert a catheter into the portal vein and inject the preperfusion solution (a Ca^2+ and Mg^2+ free Hanks' solution containing EGTA). After confirming that blood is sufficiently removed from the liver, the perfusion is stopped. The perfusate is changed into a collagenase solution to conduct perfusion. In this embodiment, the perfusion is conducted with a Hanks' solution containing 0.05% collagenase, but the collagenase solution is not limited to this. Once confirmed that the tissue between the cells was digested by collagenase, the perfusion is stopped. The liver is excised, sliced in a cooled Hanks' solution, and separated into cells by pipetting. Damaged hepatocytes are removed by centrifugation at 500 G for 5 minutes with an isotonic Percoll solution. The viability of the resultant hepatocytes is determined by the trypan blue-exclusion test. Hepatocytes having a viability of 85% or more are used for culture. Here, hepatocytes having a viability of 85% or more are used for culture, but such culture is, needless to say, not necessarily limited to the condition. In addition, the preparation of hepatocytes is not necessarily limited to that by in situ collagenase perfusion method. The hepatocytes to be used are not limited to those derived from a rat and the strain of rat is not limited. This embodiment uses hepatocytes, but cells are not limited to this.
Hepatocytes prepared by in situ collagenase perfusion method as described above are suspended in a medium. The hepatocytes are suspended at a density of 5×10^5 cells/mL in a medium and plated onto a commercially available culture dish coated with collagen. The density upon plating, the medium, and the culture plate 001 are not particularly limited. The culture plate is illustrated in FIG. 1. A 24 well culture plate having 24 culture regions (wells, 002) is here illustrated, but the culture plate is not limited to this as long as it can contain predetermined cells and containers in other shapes may be used. After plating, culture is started under conditions of 5% CO2 and 37° C. using a CO2 incubator. After 18 hours or more, the first medium change is conducted. Although the medium to be used for culture 18 hours after the plating is not particularly limited, in this embodiment, the medium (FCS−), a medium in which FCS is removed from the medium (10% FCS+), supplemented with Matrigel is used. After this, medium change with the medium (FCS−) is conducted every 24 hours. As described later, testing is conducted under three different conditions (sequences 1, 2, and 3: described in detail in step 5) in step 5, three independent culture plates with the same conditions are prepared at this point. In steps 0 to 4 and step 5, the same testing operations are conducted in all the three sequences.
The culture supernatant of the cells cultured in step 0 for 4 days is removed and 400 μL of Hanks' solution is added as a buffer. The cells are incubated at 37° C. for 10 minutes (FIG. 2, step 1). The type and amount of buffer are not particularly limited.
The buffer is removed, and then 200 μL of 10 μM CDF (a fluorescent reagent) is added to the well. The plate is incubated at 37° C. for 30 minutes and then maintained at 4° C. for 5 minutes (FIG. 2, step 2). The type, concentration, and amount of the reagent are not particularly limited. CDF emits fluorescence and can be therefore easily quantified by a plate reader as a model reagent. The amount of administration, 200 μL, was chosen so that the cells as a whole in the well would be immersed in the reagent. The concentration of CDF may be a concentration conventionally used for a fluorescence assay of cells. This concentration is preferably applied as an amount of the reagent for the detection with a plate reader. […]

ratio of the amount of drug excreted into the bile duct to the total amount of drug taken up into the cells (BiRD), (B1−B2)/(C1+C2)	ratio of the amount of drug excreted via transporter to the amount of drug excreted to the basolateral side (RexEMTP), (B2-B3)/B2	Sup fraction (first fraction of the basolateral efflux, S1), index for tendency to remain or not to remain in the cells	Substance
4.92	52.52	39.29	Rhodamine123
18.58	41.08	70.82	CDF
